Reference: ChEMBL document CHEMBL1201862, “PubChem BioAssay data set” (2004)
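Growth conditions: 96-well plates. Treatment: test compound, 48 hours, 5 concentrations. Analysis: linear interpolation between bracketing concentrations; unreached endpoints set to highest concentration. GI50 is the concentration that inhibits growth by half.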 The source made the active and inactive calls. No stated cut-off is given here; in the data, active = GI50 up to about 1.1 µM and inactive = higher.

Legend:
Assay in all cases: inhibition of tumour cell growth, NCI panel, 48 h
HT-29 = test system: HT-29
NCI-H23 = test system: NCI-H23
CCRF-CEM = test system: CCRF-CEM
KM12 = test system: KM12
SF-295 = test system: SF-295
U-251 = test system: U-251
RXF 393 = test system: RXF 393
HOP-62 = test system: HOP-62
LOX IMVI = test system: LOX IMVI
UACC-257 = test system: UACC-257
NCI/ADR-RES = test system: NCI/ADR-RES
OVCAR-4 = test system: OVCAR-4
HL-60 = test system: HL-60
OVCAR-3 = test system: OVCAR-3
SNB-75 = test system: SNB-75
HCC 2998 = test system: HCC 2998
UACC-62 = test system: UACC-62
MCF7 = test system: MCF7
COLO 205 = test system: COLO 205
MOLT-4 = test system: MOLT-4

Measured: GI50

COc1ccc(O)c(C#N)c1C#N.COc1ccc(OC)c(C#N)c1C#N
inactive: HT-29 > 100 µM | NCI-H23 > 100 µM | CCRF-CEM > 100 µM | KM12 > 100 µM | SF-295 > 100 µM | U-251 > 100 µM | RXF 393 > 100 µM | HOP-62 > 100 µM | LOX IMVI > 100 µM | UACC-257 > 100 µM | NCI/ADR-RES > 100 µM | OVCAR-4 > 100 µM | HL-60 > 100 µM | OVCAR-3 > 100 µM | SNB-75 45.8 µM | HCC 2998 > 100 µM | UACC-62 > 100 µM | MCF7 > 100 µM | COLO 205 > 100 µM | MOLT-4 > 100 µM

O=C(O)c1ccccc1/N=C/c1ccc(N(CCCl)CCCl)cc1
inactive: HT-29 > 100 µM | NCI-H23 47.6 µM | CCRF-CEM > 80.7 µM | KM12 > 100 µM | SF-295 > 100 µM | U-251 78 µM | RXF 393 > 48.3 µM | HOP-62 1.31 µM | LOX IMVI > 100 µM | UACC-257 > 78 µM | NCI/ADR-RES > 100 µM | OVCAR-4 > 100 µM | HL-60 29.4 µM | OVCAR-3 > 100 µM | SNB-75 > 100 µM | HCC 2998 > 100 µM | UACC-62 5.74 µM | MCF7 > 84.7 µM | COLO 205 > 100 µM | MOLT-4 36.6 µM

CCOC(=O)Cn1c(=O)ccn(COCCO)c1=O
inactive: HT-29 > 100 µM | NCI-H23 > 100 µM | CCRF-CEM > 100 µM | KM12 > 100 µM | U-251 > 100 µM | RXF 393 > 100 µM | HOP-62 > 100 µM | LOX IMVI > 100 µM | UACC-257 > 100 µM | NCI/ADR-RES > 100 µM | OVCAR-4 > 100 µM | HL-60 > 100 µM | OVCAR-3 > 100 µM | SNB-75 > 100 µM | HCC 2998 > 100 µM | MCF7 > 100 µM | COLO 205 > 100 µM | MOLT-4 > 100 µM

CO/N=C1\CC(NC(=O)C(F)(F)F)c2ccsc21 (configuration not stated)
inactive: HT-29 > 100 µM | NCI-H23 > 100 µM | CCRF-CEM > 100 µM | SF-295 > 100 µM | U-251 > 100 µM | RXF 393 > 100 µM | HOP-62 > 100 µM | LOX IMVI > 100 µM | UACC-257 > 100 µM | NCI/ADR-RES > 100 µM | OVCAR-4 > 100 µM | HL-60 > 100 µM | OVCAR-3 > 100 µM | SNB-75 > 100 µM | HCC 2998 > 100 µM | UACC-62 > 100 µM | MCF7 > 100 µM | COLO 205 > 100 µM | MOLT-4 > 100 µM

CC(C)=CC1C(C(=O)O)C1(C)C (configuration not stated) [CHRYSANTHEMIC ACID]
inactive: HT-29 > 750 µM | NCI-H23 > 750 µM | CCRF-CEM > 750 µM | KM12 > 750 µM | SF-295 > 750 µM | U-251 > 750 µM | RXF 393 > 750 µM | HOP-62 > 750 µM | LOX IMVI > 750 µM | UACC-257 > 750 µM | NCI/ADR-RES > 750 µM | OVCAR-4 > 750 µM | HL-60 > 750 µM | OVCAR-3 > 750 µM | SNB-75 > 750 µM | HCC 2998 > 750 µM | UACC-62 > 750 µM | MCF7 > 750 µM | COLO 205 > 750 µM | MOLT-4 > 750 µM

Brc1ccc2[nH]c3c(C4=NCCC4)nccc3c2c1
inactive: HT-29 11.2 µM | NCI-H23 24.8 µM | CCRF-CEM 10.4 µM | KM12 41.5 µM | SF-295 10.6 µM | U-251 12.5 µM | RXF 393 16.3 µM | HOP-62 11.6 µM | LOX IMVI 18 µM | UACC-257 16.9 µM | NCI/ADR-RES 40 µM | OVCAR-4 17.1 µM | HL-60 5.79 µM | OVCAR-3 61 µM | SNB-75 31.3 µM | HCC 2998 12.2 µM | UACC-62 9.73 µM | MCF7 9.25 µM | COLO 205 23.3 µM | MOLT-4 8.45 µM

c1ccc2sc(SCN(C3CCCCC3)C3CCCCC3)nc2c1
inactive: HT-29 > 100 µM | NCI-H23 > 100 µM | KM12 > 100 µM | SF-295 > 100 µM | U-251 > 100 µM | RXF 393 > 100 µM | HOP-62 > 100 µM | LOX IMVI > 100 µM | UACC-257 > 100 µM | NCI/ADR-RES > 100 µM | OVCAR-4 > 100 µM | OVCAR-3 > 100 µM | HCC 2998 > 100 µM | UACC-62 > 100 µM | MOLT-4 > 100 µM
